Measured values published in ChEMBL document CHEMBL3758174, “Discovery and Characterization of 2-Acylaminoimidazole Microsomal Prostaglandin E Synthase-1 Inhibitors” (J Med Chem, 2016).
Values after ≈ are worked out from the molar mass of the structure shown. Active and inactive are the calls of the source. The calls are words filed in the database; no cut-off is given here.

Tests used:
[1] = target: T1, Cyclooxygenase (Homo sapiens) (UniProt P35354+P23219); assay: Inhibition of COX in human whole blood assessed as decrease in TXB2 production; format: tissue-based
T1 sequence (P23219 whole entry, looked up, one chain of several): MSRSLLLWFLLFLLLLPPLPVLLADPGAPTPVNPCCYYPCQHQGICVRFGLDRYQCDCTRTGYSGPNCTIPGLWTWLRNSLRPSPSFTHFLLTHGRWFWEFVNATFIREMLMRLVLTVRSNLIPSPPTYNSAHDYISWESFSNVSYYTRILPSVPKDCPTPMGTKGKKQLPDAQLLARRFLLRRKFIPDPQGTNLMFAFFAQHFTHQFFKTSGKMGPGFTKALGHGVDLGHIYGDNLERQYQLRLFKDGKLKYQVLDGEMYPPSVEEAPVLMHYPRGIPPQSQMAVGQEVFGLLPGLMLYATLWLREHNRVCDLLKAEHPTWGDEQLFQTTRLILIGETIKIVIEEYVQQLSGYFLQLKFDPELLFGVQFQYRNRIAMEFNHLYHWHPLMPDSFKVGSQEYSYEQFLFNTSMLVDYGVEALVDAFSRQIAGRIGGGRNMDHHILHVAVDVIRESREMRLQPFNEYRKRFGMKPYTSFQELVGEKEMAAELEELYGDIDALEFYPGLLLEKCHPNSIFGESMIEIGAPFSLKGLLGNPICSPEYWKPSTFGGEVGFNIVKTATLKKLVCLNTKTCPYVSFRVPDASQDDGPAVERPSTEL

[2] = target: T1, Cyclooxygenase (Homo sapiens); assay: Inhibition of COX in human A549 cells assessed as reduction in PGE2 production; format: cell-based
[3] = target: T2, CYP3A4 (Homo sapiens, UniProt P08684); assay: Inhibition of microsomal CYP3A4 (unknown origin) using bufuralol/midazolam/diclofinac as substrate assessed as 1-hydroxybufuralol maleate-d9/alpha-hydroxymidazolam-d4/[13C6]-4-hydroxydiclofinac formation at 10 uM pre-incubated for 10 mins before NADPH addition by LC-MS/MS analysis; format: ADME; conditions: microsomes, probe bufuralol/midazolam/diclofinac
T2 sequence (P08684 whole entry): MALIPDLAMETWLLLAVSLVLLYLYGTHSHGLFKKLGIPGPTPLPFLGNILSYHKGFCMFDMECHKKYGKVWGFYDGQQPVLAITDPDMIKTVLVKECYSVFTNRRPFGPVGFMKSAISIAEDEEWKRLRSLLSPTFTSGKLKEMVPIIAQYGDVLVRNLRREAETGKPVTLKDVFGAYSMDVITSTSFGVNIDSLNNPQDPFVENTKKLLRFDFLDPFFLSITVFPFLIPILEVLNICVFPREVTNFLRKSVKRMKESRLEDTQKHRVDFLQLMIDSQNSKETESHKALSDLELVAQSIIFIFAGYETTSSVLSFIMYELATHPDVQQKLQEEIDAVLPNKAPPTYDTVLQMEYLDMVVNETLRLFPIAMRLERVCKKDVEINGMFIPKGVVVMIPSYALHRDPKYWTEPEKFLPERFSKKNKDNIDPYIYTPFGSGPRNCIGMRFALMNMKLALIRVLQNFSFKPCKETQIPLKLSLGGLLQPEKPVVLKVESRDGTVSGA

[4] = target: T1, Cyclooxygenase (Homo sapiens); assay: Inhibition of COX in human whole blood assessed as decrease in PGF2alpha production; format: tissue-based
[5] = target: T2, CYP3A4; assay: Time-dependent inhibition of microsomal CYP3A4 (unknown origin) using midazolam as substrate assessed as alpha-hydroxymidazolam-d4 at 10 uM pre-incubated for 12 mins before NADPH addition formation after 30 mins by LC-MS/MS analysis; format: ADME; conditions: microsomes, probe midazolam
[6] = target: T3, Prostaglandin E synthase (Homo sapiens, UniProt O14684); assay: Inhibition of human microsomal PGES1 expressed in 293E cells by LC/MS/MS analysis; format: cell-based
T3 sequence (O14684 whole entry): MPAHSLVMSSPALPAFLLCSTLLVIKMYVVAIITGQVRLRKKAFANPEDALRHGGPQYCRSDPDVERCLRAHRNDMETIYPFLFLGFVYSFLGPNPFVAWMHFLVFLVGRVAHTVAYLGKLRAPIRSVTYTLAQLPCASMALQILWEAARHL

[7] = target: T4, Prostaglandin E synthase (Homo sapiens) (UniProt O14684); assay: (§1) Inhibition of mPGES1 in LPS-induced human whole blood assessed as suppression of PGE2 response after 20 to 24 hrs by LC-MS/MS analysis; format: tissue-based
T4 sequence (whole entry): T3 sequence (O14684 whole entry)

[8] = target: T3, Prostaglandin E synthase; assay: as §1; format: tissue-based
[9] = target: T3, Prostaglandin E synthase; assay: Inhibition of mPGES1 in rhIL-1beta-stimulated human A549 cells assessed as PGE2 level treated for 18 hrs after 30 mins pre-incubation with rhIL-1beta by EIA method; format: cell-based
[10] = target: T1, Cyclooxygenase (Homo sapiens); assay: Inhibition of COX in human whole blood assessed as decrease in TXB2 production up to 30 uM; format: tissue-based
[11] = target: T1, Cyclooxygenase (Homo sapiens); assay: Inhibition of COX in human A549 cells assessed as reduction in PGE2 production at 10 uM; format: cell-based
[12] = target: T5, Prostaglandin E synthase (Canis lupus familiaris) (UniProt A0SYQ0); assay: (§2) Inhibition of mPGES1 in LPS-induced dog whole blood assessed as suppression of PGE2 response pre-incubated for 30 mins followed by LPS addition and measured after 5 hrs by LC-MS/MS analysis; format: tissue-based
T5 sequence (whole entry): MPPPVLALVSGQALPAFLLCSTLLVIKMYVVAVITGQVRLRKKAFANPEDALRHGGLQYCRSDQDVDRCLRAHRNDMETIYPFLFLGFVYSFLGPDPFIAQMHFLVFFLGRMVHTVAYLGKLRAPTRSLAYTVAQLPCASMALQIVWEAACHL

[13] = target: T6, Prostaglandin G/H synthase 2 (Homo sapiens) (UniProt P35354); assay: Inhibition of COX-2 (unknown origin) at 10 uM
T6 sequence (whole entry): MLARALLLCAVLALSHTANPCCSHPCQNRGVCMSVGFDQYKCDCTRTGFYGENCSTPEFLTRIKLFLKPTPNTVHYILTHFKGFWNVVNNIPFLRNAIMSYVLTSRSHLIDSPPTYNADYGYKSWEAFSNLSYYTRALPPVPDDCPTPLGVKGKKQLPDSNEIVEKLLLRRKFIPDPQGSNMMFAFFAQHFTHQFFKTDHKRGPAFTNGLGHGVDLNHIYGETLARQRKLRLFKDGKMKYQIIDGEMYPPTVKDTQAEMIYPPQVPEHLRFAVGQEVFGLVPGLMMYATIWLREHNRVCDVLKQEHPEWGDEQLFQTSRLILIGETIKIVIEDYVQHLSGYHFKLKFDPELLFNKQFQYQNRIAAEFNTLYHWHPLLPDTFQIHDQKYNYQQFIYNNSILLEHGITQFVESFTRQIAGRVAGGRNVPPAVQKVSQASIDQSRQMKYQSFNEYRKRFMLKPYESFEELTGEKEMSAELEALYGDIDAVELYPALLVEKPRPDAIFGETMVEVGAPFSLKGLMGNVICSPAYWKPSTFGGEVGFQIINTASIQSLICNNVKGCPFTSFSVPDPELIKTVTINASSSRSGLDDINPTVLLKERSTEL

[14] = target: Prostaglandin G/H synthase 1 (Homo sapiens) (UniProt P23219); assay: Inhibition of COX-1 (unknown origin) at 10 uM
Sequence of Prostaglandin G/H synthase 1 (Homo sapiens) (P23219 whole entry): as the sequence (P23219 whole entry, looked up, one chain of several) above

[15] = Oral bioavailability in beagle dog at 2 mg/kg after 0.25 to 24 hrs by LC-MS/MS analysis; format: ADME, organism-based, Canis lupus familiaris; conditions: in vivo
[16] = target: T7, Prostaglandin E synthase (Canis lupus familiaris, UniProt A0SYQ0); assay: as §2; format: tissue-based
T7 sequence (A0SYQ0 whole entry): T5 sequence (whole entry)

[17] = Plasma concentration in beagle dog at 2 mg/kg, po after 24 hrs by LC-MS/MS analysis; format: ADME, organism-based, Canis lupus familiaris
[18] = target: Voltage-gated inwardly rectifying potassium channel KCNH2 (Homo sapiens, UniProt Q12809); assay: Inhibition of human ERG
Sequence of Voltage-gated inwardly rectifying potassium channel KCNH2 (Q12809 whole entry): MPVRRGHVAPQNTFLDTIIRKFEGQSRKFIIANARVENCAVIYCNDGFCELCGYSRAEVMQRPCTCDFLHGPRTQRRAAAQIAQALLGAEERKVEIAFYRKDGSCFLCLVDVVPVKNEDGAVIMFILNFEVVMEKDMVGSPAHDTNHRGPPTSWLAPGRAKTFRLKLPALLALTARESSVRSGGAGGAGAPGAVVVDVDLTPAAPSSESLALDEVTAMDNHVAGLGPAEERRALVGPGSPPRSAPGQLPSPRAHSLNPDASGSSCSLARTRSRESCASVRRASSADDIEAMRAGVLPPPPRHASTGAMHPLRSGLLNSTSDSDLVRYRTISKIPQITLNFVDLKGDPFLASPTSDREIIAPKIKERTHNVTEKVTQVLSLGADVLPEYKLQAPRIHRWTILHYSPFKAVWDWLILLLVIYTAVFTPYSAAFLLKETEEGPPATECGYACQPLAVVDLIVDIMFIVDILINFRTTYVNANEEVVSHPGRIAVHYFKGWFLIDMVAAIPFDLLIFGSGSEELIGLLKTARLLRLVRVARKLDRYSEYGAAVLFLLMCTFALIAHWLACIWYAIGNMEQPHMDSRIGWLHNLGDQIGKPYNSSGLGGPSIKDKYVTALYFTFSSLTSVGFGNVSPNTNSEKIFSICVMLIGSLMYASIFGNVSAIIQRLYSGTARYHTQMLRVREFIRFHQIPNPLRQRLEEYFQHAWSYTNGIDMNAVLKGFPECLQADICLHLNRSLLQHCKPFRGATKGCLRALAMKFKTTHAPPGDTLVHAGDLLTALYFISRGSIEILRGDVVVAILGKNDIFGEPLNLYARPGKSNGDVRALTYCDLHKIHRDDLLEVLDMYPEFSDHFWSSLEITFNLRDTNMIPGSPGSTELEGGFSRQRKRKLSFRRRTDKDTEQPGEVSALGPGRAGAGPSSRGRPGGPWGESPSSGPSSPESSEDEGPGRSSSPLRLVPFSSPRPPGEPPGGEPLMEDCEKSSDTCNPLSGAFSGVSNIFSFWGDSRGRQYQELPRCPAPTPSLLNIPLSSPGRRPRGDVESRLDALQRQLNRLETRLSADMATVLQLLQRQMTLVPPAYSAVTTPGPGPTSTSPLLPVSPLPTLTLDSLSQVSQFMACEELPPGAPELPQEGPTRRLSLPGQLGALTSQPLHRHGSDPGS

[19] = Inhibition of rat microsomal PGES1 expressed in 293E cells by LC/MS/MS analysis; format: cell-based
[20] = Solubility of compound in FasSIF at 2 mg at room temperature after 24 hrs by HPLC analysis; format: physicochemical
[21] = Oral bioavailability in beagle dog at 0.5 mg/kg after 0.25 to 24 hrs by LC-MS/MS analysis; format: ADME, organism-based, Canis lupus familiaris; conditions: in vivo
[22] = target: Prostaglandin G/H synthase 1 (Homo sapiens) (UniProt P23219); assay: Inhibition of COX1 (unknown origin) at 100 uM
[23] = target: T8, hERG (Homo sapiens, UniProt Q12809); assay: Inhibition of human ERG at 100 uM
T8 sequence (Q12809 whole entry): as above

[24] = target: T8, hERG; assay: Inhibition of human ERG at 10 uM
[25] = tested on: Plasma; assay: Plasma concentration in beagle dog at 2 mg/kg, po after; format: ADME, organism-based, Canis lupus familiaris; conditions: in vivo
[26] = Volume of distribution at steady state in beagle dog at 2 mg/kg,po or 0.5 mg/kg, iv after 0.25 to 24 hrs by LC-MS/MS analysis; format: ADME, organism-based, Canis lupus familiaris; conditions: in vivo, read-out: Vdss
[27] = Clearance in beagle dog at 2 mg/kg,po or 0.5 mg/kg, iv after 0.25 to 24 hrs by LC-MS/MS analysis; format: ADME, organism-based, Canis lupus familiaris; conditions: in vivo
[28] = Tmax in beagle dog at 2 mg/kg,po after 0.25 to 24 hrs by LC-MS/MS analysis; format: ADME, organism-based, Canis lupus familiaris; conditions: in vivo
[29] = target: T6, Prostaglandin G/H synthase 2 (Homo sapiens); assay: Inhibition of COX2 (unknown origin) at 30 uM
[30] = Stability of compound at 40 degC/75% RH; format: physicochemical
[31] = Stability of compound at 70 degC/75% RH; format: physicochemical

SMILES | inhibition at 10 µM [3] [%] | inhibition at 0.5 h, 10 µM [5] [%] | IC50 [6] [µM] | IC80 [7] [µM] | IC50 [8] [µM] | IC50 [9] [µM] | inhibition [10] | inhibition [11] | other results
CC(C)C(=O)NCc1cc(C(=O)Nc2ncc[nH]2)c(Cl)cc1F | – | – | 3.67 | 57.4 | 9.53 | > 10 | inactive | inactive | –
CC[C@H](C)C(=O)NCc1ccc(C(F)F)c(C(=O)Nc2ncc[nH]2)c1 | – | – | 1.12 | 21.1 | 10.5 | 8.86 | inactive | inactive | –
CC(C)(C)C(=O)NCc1ccc(Br)c(C(=O)Nc2ncc[nH]2)c1 | – | – | – | – | – | – | inactive | inactive | –
CC(C)C(=O)NCc1ccc(C(F)F)c(C(=O)Nc2ncc(-c3ccc(Cl)cc3)[nH]2)c1 | 44 | 75 | < 0.003 | 0.994 | 0.338 | 0.019 | – | – | inhibition [1]: inactive; inhibition [2]: inactive; inhibition [4]: inactive
Cc1nc(NC(=O)c2cc(CNC(=O)C(C)C)cnc2C(F)F)[nH]c1-c1ccc(C(F)(F)F)cc1 [listing 1 of 2 here] | – | – | – | 0.069 | – | – | – | – | IC80 [12]: 0.703 µM; inhibition [13]: inactive; inhibition [14]: inactive
CC(=O)NCc1cnc(C(F)F)c(C(=O)Nc2nc(C)c(-c3ccc(C(F)(F)F)cc3)[nH]2)c1 | 19 | 8 | 0.074 | – | – | 0.72 | – | – | –
CC(C)C(=O)NCc1ccc(Cl)c(C(=O)Nc2ncc[nH]2)c1 | – | – | – | 8.8 | – | – | inactive | inactive | –
CC(C)C(=O)NCc1ccc(C(F)F)c(C(=O)Nc2ncc[nH]2)c1 | – | 20 | 2.46 | 31 | 4.61 | 3.15 | inactive | inactive | bioavailability [15]: 100%; Vd [26]: 2.27 L/kg; clearance [27]: 26.1 mL/min/kg; Tmax [28]: 15 min
N#Cc1cccc(C#N)c1-c1nc2c3ccc(Cl)cc3c3ccccc3c2[nH]1 | 32 | – | – | – | – | – | – | – | –
CCC(=O)NCc1cnc(C(F)F)c(C(=O)Nc2nc(C)c(-c3ccc(C(F)(F)F)cc3)[nH]2)c1 | 0 | 15 | 0.0103 | 0.991 | 0.374 | 0.098 | – | – | –
CC(C)(C)C(=O)NCc1ccc(C(F)F)c(C(=O)Nc2ncc[nH]2)c1 | – | – | 0.676 | 33.7 | 1.43 | 3.25 | inactive | inactive | –
Cc1nc(NC(=O)c2cc(CNC(=O)C(C)C)cnc2C(F)F)[nH]c1-c1ccc(C(F)(F)F)cc1.O=P(O)(O)O | – | – | – | – | – | – | – | – | Stability [30]: 4 weeks; Stability [31]: 2 weeks
CCC(C)(C)C(=O)NCc1ccc(Cl)c(C(=O)Nc2ncc[nH]2)c1 | – | – | 0.385 | 9.37 | 0.853 | 1.23 | inactive | inactive | –

Now from value to molecule, other results behind:

inhibition at 10 µM [3] [%] | inhibition at 0.5 h, 10 µM [5] [%] | IC50 [6] [µM] | IC80 [7] [µM] | IC50 [8] [µM] | IC50 [9] [µM] | inhibition [10] | inhibition [11] | SMILES | other results
22 | 72 | < 0.003 | 0.146 | 0.029 | 0.037 | – | – | CC(C)C(=O)NCc1cnc(C(F)F)c(C(=O)Nc2ncc(-c3ccc(Cl)cc3)[nH]2)c1 | inhibition [1]: inactive; inhibition [2]: inactive; inhibition [4]: inactive
0 | 27 | < 0.003 | 0.48 | 0.091 | 0.039 | – | – | Cc1nc(NC(=O)c2cc(CNC(=O)C(C)C)cnc2C(F)F)[nH]c1-c1ccc(Cl)cc1 | –
– | – | 2.32 | 132 | 13 | 8.85 | inactive | inactive | Cc1cc(Cl)c(C(=O)Nc2ncc[nH]2)cc1CNC(=O)C(C)C | –
0 | 23 | 0.0009 | – | – | – | – | – | Cc1nc(NC(=O)c2cc(CNC(=O)C(C)C)cnc2C(F)F)[nH]c1-c1ccc(C(F)(F)F)cc1 [listing 2 of 2 here] | bioavailability [15]: 37%; IC50 [16]: 0.139 µM; concentration at 24 h [17]: > 200 nM; IC50 [18]: 82.6 µM; Ki [18]: 41.3 µM; IC50 [19]: 33.9 µM; solubility at 24 h [20]: 7 µg/mL (≈ 14.1 µM)
– | – | – | 2.44 | – | – | inactive | inactive | CC(C)(C)C(=O)NCc1ccc(Cl)c(C(=O)Nc2ncc[nH]2)c1 [LY-3031207] | bioavailability [21]: 60%; inhibition [22]: 9%; inhibition at 100 µM [23]: 14%; IC80 [12]: 1.84 µM; IC50 [16]: 0.555 µM; inhibition at 10 µM [24]: -4%; concentration [25]: > 1000 nM; IC50 [19]: > 1000 µM
46 | – | – | – | – | – | – | – | Cc1c(CC(C)(C)C(=O)O)n(Cc2ccc(Cl)cc2)c2ccc(-c3ccc(-c4ccccc4)c(F)c3)cc12 | –
– | – | 3.11 | 9.08 | 2.43 | 4.62 | inactive | inactive | Cc1ccc(CNC(=O)C(C)(C)C)cc1C(=O)Nc1ncc[nH]1 | inhibition [29]: 16%
– | – | 1.08 | 10.5 | 2.14 | 3.23 | inactive | inactive | CC(C)(C)C(=O)NCc1ccc(C(F)(F)F)c(C(=O)Nc2ncc[nH]2)c1 | –
